The values that follow come from US20060089378A1 (priority 2004, published 2006).

What is called IC50 is the concentration that inhibits the measured activity by half. What is called EC50 is the midpoint of the concentration-response curve. A higher EC50 goes with weaker potency. One may read the inhibition as the drop in the measured response relative to a control, in per cent.

One assay addresses T1, Cannabinoid CB1 Receptor (Homo sapiens, UniProt P21554).
T1 construct: expressed in transfected cells
The assay can be described thus: Binding assay for CB1 agonists or inverse agonists (radioligand competition, membranes of transfected SK-N-MC cells). Conditions: for inhibition at 0.2 µM: read-out: Cannabinoid CB1 Receptor Binding percent inhibition.

The target of a further assay is CB1 receptor (human) (Homo sapiens, UniProt P21554). The assay can be described thus: cell-based. Conditions: for CB1 Receptor Functional Activity (change in functional activity, CRE β-gal): one compound concentration, β-galactosidase activity relative to vehicle treated cells.
Sequence of CB1 receptor (human) (P21554 whole entry): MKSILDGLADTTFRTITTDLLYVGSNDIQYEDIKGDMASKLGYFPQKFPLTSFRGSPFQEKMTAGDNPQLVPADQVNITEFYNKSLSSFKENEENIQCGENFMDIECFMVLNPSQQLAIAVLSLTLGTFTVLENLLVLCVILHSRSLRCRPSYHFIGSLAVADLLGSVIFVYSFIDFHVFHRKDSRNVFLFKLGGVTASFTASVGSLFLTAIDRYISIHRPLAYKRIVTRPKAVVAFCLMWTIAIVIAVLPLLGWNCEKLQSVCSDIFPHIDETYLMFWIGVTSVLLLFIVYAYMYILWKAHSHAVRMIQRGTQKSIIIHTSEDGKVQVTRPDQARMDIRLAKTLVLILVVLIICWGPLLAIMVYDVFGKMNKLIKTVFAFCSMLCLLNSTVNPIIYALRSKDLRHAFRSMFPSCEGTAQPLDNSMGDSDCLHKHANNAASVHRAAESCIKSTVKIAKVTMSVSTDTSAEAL
The target in another assay is T2, Cannabinoid CB2 Receptor (Homo sapiens, UniProt P34972).
T2 construct: expressed in transfected cells
T2 sequence (P34972 whole entry): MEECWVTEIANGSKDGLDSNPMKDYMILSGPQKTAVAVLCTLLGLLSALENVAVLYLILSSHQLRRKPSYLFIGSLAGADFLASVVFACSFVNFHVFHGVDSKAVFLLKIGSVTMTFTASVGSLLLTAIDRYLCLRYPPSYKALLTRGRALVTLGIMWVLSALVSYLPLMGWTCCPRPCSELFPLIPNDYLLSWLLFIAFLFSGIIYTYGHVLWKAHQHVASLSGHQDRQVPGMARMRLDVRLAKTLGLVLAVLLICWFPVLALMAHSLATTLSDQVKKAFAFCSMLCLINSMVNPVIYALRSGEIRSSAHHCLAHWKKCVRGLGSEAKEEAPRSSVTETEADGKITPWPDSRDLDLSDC
Put plainly: Binding assay for CB2 agonists or inverse agonists (radioligand competition, membranes of transfected SK-N-MC cells). Conditions: for inhibition at 0.2 µM: read-out: Cannabinoid CB2 Receptor Binding percent inhibition. On the technique in general: Displacement assays read how much labelled ligand stays bound in the presence of the test substance.

[1] abbreviates: test concentration of 0.2 μM, compounds without an IC50 binding value.

The structures appear in SMILES notation. Read-outs that look alike come from different tables or passages of the source.

T1 sequence (P21554 whole entry): as the sequence (P21554 whole entry) above

Turning to `CCNC(=O)N1C/C(=C\c2ccc(OC)cc2)c2c(c(C(=O)N[C@H](C)c3ccccc3)nn2-c2ccc(Cl)cc2Cl)C1` [Cpd 41, (7E)-1-(2,4-dichloro-phenyl)-7-(4-methoxy-benzylidene)-1,4,6,7-tetrahydro-pyrazolo[4,3-c]pyridine-3,5-dicarboxylic acid 5-ethylamide 3-{[(1R)-1-phenyl-ethyl]-amide}], the IC50 at Cannabinoid CB1 Receptor turned out to be 9 nM. For the same compound, the EC50 on CB1 receptor (human) was 0.2 nM. In addition, the inhibition at 0.2 µM at Cannabinoid CB2 Receptor was found to be 27%.

Regarding `CCNC(=O)N1CCc2c(c(C(=O)NC3C4(C)CCC(C4)C3(C)C)nn2-c2ccccc2)C1` (stereo not drawn) [Cpd 114, 1-phenyl-1,4,6,7-tetrahydro-pyrazolo[4,3-c]pyridine-3,5-dicarboxylic acid 5-ethylamide 3-[(1,3,3-trimethyl-bicyclo[2.2.1]hept-2-yl)-amide]], the inhibition at 0.2 µM on Cannabinoid CB1 Receptor worked out at 51%; on Cannabinoid CB2 Receptor it was 34%. Moreover, the “CB1 Receptor Functional Activity (change in functional activity, CRE β-gal)” value on CB1 receptor (human) is 51%.

At Cannabinoid CB1 Receptor, `CC(=O)N1C/C(=C\c2ccc(F)cc2)c2c(c(C(=O)N[C@@H](C)C3CCCCC3)nn2-c2ccc(Cl)cc2Cl)C1` [Cpd 6, (7E)-5-acetyl-1-(2,4-dichloro-phenyl)-7-(4-fluoro-benzylidene)-4,5,6,7-tetrahydro-1H-pyrazolo[4,3-c]pyridine-3-carboxylic acid [(1S)-1-cyclohexyl-ethyl]-amide] displayed an IC50 of 100 nM. Besides, the EC50 at CB1 receptor (human) is 30 nM. Also, the inhibition at 0.2 µM on Cannabinoid CB2 Receptor is 14%.

`CCNC(=O)N1C/C(=C\c2ccc(F)cc2)c2c(c(C(=O)NC(C)c3ccccn3)nn2-c2ccc(Cl)cc2Cl)C1` (stereo not drawn) [Cpd 24, (7E)-1-(2,4-dichloro-phenyl)-7-(4-fluoro-benzylidene)-1,4,6,7-tetrahydro-pyrazolo[4,3-c]pyridine-3,5-dicarboxylic acid 5-ethylamide 3-[(1-pyridin-2-yl-ethyl)-amide]] registered an IC50 on Cannabinoid CB1 Receptor of 20 nM. The EC50 on CB1 receptor (human) was 20 nM. In addition, the inhibition at 0.2 µM at Cannabinoid CB2 Receptor was found to be 6%.

In the case of `COc1ccc(/C=C2\CN(C(C)=O)Cc3c(C(=O)NC(C)c4ccccn4)nn(-c4ccc(Cl)cc4Cl)c32)cc1` (stereo not drawn) [Cpd 60, (7E)-5-acetyl-1-(2,4-dichloro-phenyl)-7-(4-methoxy-benzylidene)-4,5,6,7-tetrahydro-1H-pyrazolo[4,3-c]pyridine-3-carboxylic acid (1-pyridin-2-yl-ethyl)-amide], at Cannabinoid CB1 Receptor, the IC50 was determined as 20 nM. Also, the EC50 at CB1 receptor (human) was 7 nM. Further, the inhibition at 0.2 µM at Cannabinoid CB2 Receptor (setting [1]) was 28%.

Compound `COC(=O)N1C/C(=C\c2ccc(F)cc2)c2c(c(C(=O)NC(C)c3ccccn3)nn2-c2ccc(Cl)cc2Cl)C1` (stereo not drawn) [Cpd 23, (7E)-1-(2,4-dichloro-phenyl)-7-(4-fluoro-benzylidene)-3-(1-pyridin-2-yl-ethylcarbamoyl)-1,4,6,7-tetrahydro-pyrazolo[4,3-c]pyridine-5-carboxylic acid methyl ester] showed an IC50 on Cannabinoid CB1 Receptor of 10 nM. The EC50 on CB1 receptor (human) was determined as 4 nM. Moreover, the inhibition at 0.2 µM at Cannabinoid CB2 Receptor is 18%.

Compound `CC(=O)N1C/C(=C\c2ccc(F)cc2)c2c(c(C(=O)N[C@H](C)c3ccccc3)nn2-c2ccc(Cl)cc2)C1` [Cpd 68, (7E)-5-acetyl-1-(4-chloro-phenyl)-7-(4-fluoro-benzylidene)-4,5,6,7-tetrahydro-1H-pyrazolo[4,3-c]pyridine-3-carboxylic acid [(1R)-1-phenyl-ethyl]-amide] yielded an IC50 on Cannabinoid CB1 Receptor of 20 nM. Moreover, the EC50 at CB1 receptor (human) was 3 nM. Also, on Cannabinoid CB2 Receptor, the inhibition at 0.2 µM is 11%.

On to `COc1ccc(/C=C2\CN(S(C)(=O)=O)Cc3c(C(=O)NC(C)c4ccccn4)nn(-c4ccc(Cl)cc4Cl)c32)cc1` (stereo not drawn) [Cpd 63, (7E)-1-(2,4-dichloro-phenyl)-5-methanesulfonyl-7-(4-methoxy-benzylidene)-4,5,6,7-tetrahydro-1H-pyrazolo[4,3-c]pyridine-3-carboxylic acid (1-pyridin-2-yl-ethyl)-amide], for which the IC50 at Cannabinoid CB1 Receptor was found to be 6 nM. In addition, the EC50 at CB1 receptor (human) was found to be 3 nM. On Cannabinoid CB2 Receptor, the inhibition at 0.2 µM was 48%.

For `COc1ccc(/C=C2\CN(S(=O)(=O)N(C)C)Cc3c(C(=O)NC(C)c4ccccn4)nn(-c4ccc(Cl)cc4Cl)c32)cc1` (stereo not drawn) [Cpd 64, (7E)-1-(2,4-dichloro-phenyl)-5-dimethylsulfamoyl-7-(4-methoxy-benzylidene)-4,5,6,7-tetrahydro-1H-pyrazolo[4,3-c]pyridine-3-carboxylic acid (1-pyridin-2-yl-ethyl)-amide], on Cannabinoid CB1 Receptor, the half-inhibitory concentration (IC50) amounted to 6 nM. Besides, the response at CB1 receptor (human) was half-maximal at 1 nM (EC50). Further, the inhibition at 0.2 µM at Cannabinoid CB2 Receptor was 62%.

For `CC(=O)N1C/C(=C\c2ccc(F)cc2)c2c(c(C(=O)N[C@H](C)C3CCCCC3)nn2-c2ccc(Cl)cc2Cl)C1` [Cpd 14, (7E)-5-acetyl-1-(2,4-dichloro-phenyl)-7-(4-fluoro-benzylidene)-4,5,6,7-tetrahydro-1H-pyrazolo[4,3-c]pyridine-3-carboxylic acid [(1R)-1-cyclohexyl-ethyl]-amide], the IC50 on Cannabinoid CB1 Receptor is 8 nM. The EC50 on CB1 receptor (human) came to 4 nM. Further, the inhibition at 0.2 µM at Cannabinoid CB2 Receptor is 16%.

Turning to `CC(=O)N1CCc2c(c(C(=O)NC3C4(C)CCC(C4)C3(C)C)nn2-c2ccccc2)C1` (stereo not drawn) [Cpd 112, 5-acetyl-1-phenyl-4,5,6,7-tetrahydro-1H-pyrazolo[4,3-c]pyridine-3-carboxylic acid (1,3,3-trimethyl-bicyclo[2.2.1]hept-2-yl)-amide], the inhibition at 0.2 µM at Cannabinoid CB1 Receptor (setting [1]) was determined as 44%. In addition, at CB1 receptor (human), the “CB1 Receptor Functional Activity (change in functional activity, CRE β-gal)” value is given as 45%. The same compound returned an IC50 at Cannabinoid CB2 Receptor of 100 nM.

Regarding `COC(=O)N1C/C(=C\c2ccc(F)cc2)c2c(c(C(=O)NN3CC4CCCC4C3)nn2-c2ccc(Cl)cc2Cl)C1` (stereo not drawn) [Cpd 92, (7E)-1-(2,4-dichloro-phenyl)-7-(4-fluoro-benzylidene)-3-(hexahydro-cyclopenta[c]pyrrol-2-ylcarbamoyl)-1,4,6,7-tetrahydro-pyrazolo[4,3-c]pyridinc-5-carboxylic acid methyl ester], the half-inhibitory concentration (IC50) at Cannabinoid CB1 Receptor worked out at 20 nM. This compound also came in with an EC50 at CB1 receptor (human) of 2 nM. The inhibition at 0.2 µM at Cannabinoid CB2 Receptor was 4%.

As for `C[C@@H](NC(=O)c1nn(-c2ccc(Cl)cc2Cl)c2c1CN(C(=O)OC(C)(C)C)C/C2=C\c1ccc(F)cc1)c1ccccc1` [Cpd 2, (7E)-1-(2,4-dichloro-phenyl)-7-(4-fluoro-benzylidene)-3-[(1R)-1-phenyl-ethyl-carbamoyl]-1,4,6,7-tetrahydro-pyrazolo[4,3-c]pyridine-5-carboxylic acid tert-butyl ester], the IC50 at Cannabinoid CB1 Receptor is 30 nM. Moreover, a half-maximal effect at CB1 receptor (human) (EC50) was put at 10 nM. At Cannabinoid CB2 Receptor, the inhibition at 0.2 µM was 16%.

In the case of `CCNC(=O)N1C/C(=C\c2ccc(F)cc2)c2c(c(C(=O)NC(C)c3ccccn3)nn2-c2ccc(Cl)cc2)C1` (stereo not drawn) [Cpd 77, (7E)-1-(4-chloro-phenyl)-7-(4-fluoro-benzylidene)-1,4,6,7-tetrahydro-pyrazolo[4,3-c]pyridine-3,5-dicarboxylic acid 5-ethylamide 3-[(1-pyridin-2-yl-ethyl)-amide]], at Cannabinoid CB1 Receptor, the IC50 stood at 80 nM. On CB1 receptor (human), this compound gave an EC50 of 10 nM. The inhibition at 0.2 µM on Cannabinoid CB2 Receptor was 0%.

Compound `CC(NC(=O)c1nn(-c2ccc(Cl)cc2Cl)c2c1CN(C(=O)OC(C)(C)C)C/C2=C\c1ccc(F)cc1)c1ccccn1` (stereo not drawn) [Cpd 20, (7E)-1-(2,4-dichloro-phenyl)-7-(4-fluoro-benzylidene)-3-(1-pyridin-2-yl-ethylcarbamoyl)-1,4,6,7-tetrahydro-pyrazolo[4,3-c]pyridine-5-carboxylic acid tert-butyl ester] had an IC50 on Cannabinoid CB1 Receptor of 40 nM. Further, the EC50 at CB1 receptor (human) worked out at 20 nM. Also, on Cannabinoid CB2 Receptor, the inhibition at 0.2 µM is 14%.

For the compound `COc1ccc(/C=C2\CNCc3c(C(=O)N[C@H](C)c4ccccn4)nn(-c4ccc(Cl)cc4Cl)c32)cc1` [Cpd 93, (7E)-1-(2,4-dichloro-phenyl)-7-(4-methoxy-benzylidene)-4,5,6,7-tetrahydro-1H-pyrazolo[4,3-c]pyridine-3-carboxylic acid [(1R)-1-pyridin-2-yl-ethyl]-amide], the IC50 at Cannabinoid CB1 Receptor worked out at 30 nM. The compound also showed an EC50 on CB1 receptor (human) of 8 nM. At Cannabinoid CB2 Receptor, the inhibition at 0.2 µM was found to be 7%.

`COc1ccc(/C=C2\CNCc3c(C(=O)NN4CC5CCCC5C4)nn(-c4ccc(Cl)cc4Cl)c32)cc1` (stereo not drawn) [Cpd 95, (7E)-1-(2,4-dichloro-phenyl)-7-(4-methoxy-benzylidene)-4,5,6,7-tetrahydro-1H-pyrazolo[4,3-c]pyridine-3-carboxylic acid (hexahydro-cyclopenta[c]pyrrol-2-yl)-amide] gave an IC50 on Cannabinoid CB1 Receptor of 80 nM. On CB1 receptor (human), this compound came in with an EC50 of 9 nM. On Cannabinoid CB2 Receptor, the inhibition at 0.2 µM was found to be 20%.

On Cannabinoid CB1 Receptor, `CCOC(=O)CN1C/C(=C\c2ccc(OC)cc2)c2c(c(C(=O)NC(C)c3ccccn3)nn2-c2ccc(Cl)cc2Cl)C1` (stereo not drawn) [Cpd 65, (7E)-[1-(2,4-dichloro-phenyl)-7-(4-methoxy-benzylidene)-3-(1-pyridin-2-yl-ethylcarbamoyl)-1,4,6,7-tetrahydro-pyrazolo[4,3-c]pyridin-5-yl]-acetic acid ethyl ester] had an IC50 of 10 nM. Moreover, on CB1 receptor (human), a half-maximal response (EC50) required 9 nM. The inhibition at 0.2 µM on Cannabinoid CB2 Receptor amounted to 39%.

With `Cc1ccc(S(=O)(=O)N2CCc3c(c(C(=O)NC4C5(C)CCC(C5)C4(C)C)nn3Cc3ccccc3)C2)cc1` (stereo not drawn) [Cpd 125, 1-benzyl-5-(toluene-4-sulfonyl)-4,5,6,7-tetrahydro-1H-pyrazolo[4,3-c]pyridine-3-carboxylic acid (1,3,3-trimethyl-bicyclo[2.2.1]hept-2-yl)-amide], the IC50 on Cannabinoid CB1 Receptor (human CB1, SK-N-MC cell membranes, calculated by linear regression from percent inhibition at various concentrations, read-out: Cannabinoid CB1 Receptor Binding IC50) was 200 nM; at Cannabinoid CB2 Receptor, 30 nM. The “CB1 Receptor Functional Activity (change in functional activity, CRE β-gal)” value at CB1 receptor (human) was 27%.
